Experiments:
[1] = tested on: autologous EBV-transformed B cells; experiment: Target sensitization assay: 51Cr release lysis by CTL clone 3B8 of peptide-incubated autologous EBV-transformed B cells; type: cell-based, human; settings: EBV-transformed B cells incubated with peptide, CTL clone 3B8 effector 30:1, chromium release after 4 h; read-out: Peptide concentration giving semi-maximal lysis
Method: 2000 EBV-transformed cells were incubated and labeled with 51Cr for 1 h in the presence of the HLA-B7-restricted iCE peptide (SPRWWPTCL; SEQ ID NO:2) or another control HLA-B7-restricted peptide (VISTVVANL; SEQ ID NO:9). Clone 3B8 was then added as an effector, in a ratio set at 30:1. Chromium release was measured after 4 h.
The cytolytic activity of the CTLs was determined in a standard ^51Cr release assay as previously described (22). Target cells (RCC and K562 cell lines) were labeled for 1 h with 50 μCi to 100 μCi of ^51Cr (Du Pont, NEN, Boston, Mass.) at 37° C., and 2×10^3 cells were seeded in 96-microwell plates in 100 μl of RPMI supplemented with 5% of FCS. […] The 96-microwell plates were incubated at 37° C. for 4 h, and ^51Cr release was determined in the harvested supernatants. […]
In order to reduce the nucleotide sequence encoding the antigen, several truncated cDNAs were obtained by PCR amplification. […] After examining the corresponding amino acid sequence, all possible nonamers and decamers were synthesized, and their ability to make autologous EBV-transformed B cells sensitive to lysis by 3B8 was evaluated.
Finally, an alternative ORF was found (a+1 translational open reading frame leading to a 453-nt ORF) with three ATGs in nt positions 476, 479 and 803, which encodes a nonamer (SPRWWPTCL) (SEQ ID NO: 2) in the minimum region of nt 763-855. […]

[2] = target: T1, HLA-B*0702 (Homo sapiens, UniProt P01889); experiment: Binding and stability of peptide on T2 cells transfected with HLA-B*0702 (HLA-B7 expression by flow cytometry)
T1 construct: expressed in transfected cells; host or cells: T2 cells
Method: T2 cells were incubated at 26° C. for 16 hours in medium without serum containing peptides at a concentration of 50 μM. Then, the peptides were again added, and the cells were incubated at 37° C. At 30-min or 1-h intervals, aliquots of cells were harvested, and the change in HLA-B7 expression was monitored by flow cytometry using an anti-HLA-B7 mAB (HB59). By way of control, an HLA-A2-restricted HSP70 peptide was used. The peptide SPRWWPTCL is provided in SEQ ID NO: 2.
HLA-A2-binding peptide antigens upregulate the expression of HLA-A2 molecules on T2 cells (37). Similarly, T2 cells transfected with HLA-B*0702 (38) were used to analyze the binding capacity and the stability of the iCE peptide (FIG. 6). At […], the binding of the iCE peptide is stable over time for at least 4 h, unlike the control, which is the HLA-A2-restricted HSP70 peptide (14).

SPRWWPTCL [nonamer encoded by the +1 alternative ORF of the iCE gene, with HLA-B7-anchoring residues at positions 2, 3 and 9]
EC50 [1]: < 1 µM
Stability of binding to T2 cells transfected with HLA-B*0702 (in words) ([2]; T2 cells transfected with HLA-B*0702): stable with time
Time over which binding to HLA-B7 is stable ([2]; T2 cells transfected with HLA-B*0702, peptide at 50 mM (so in the source), 37° C.): at least 4 h
Binding to HLA-B*0702-presenting molecules (in words) ([2]; binding assay by immunofluorescence using transfected T2 cells): binds

Source: patent US6875844B1, “Peptide compounds derived from a shifted ORF of the iCE gene” (Institut Gustave Roussy, priority 1999, dated 2005)
